The source of these data is patent US20120172369A1 (priority 2009, published 2012).

The target in the first experiment is T1, human DGAT1 enzyme (Homo sapiens, UniProt O75907).
T1 construct: made in house; host or cells: Sf9 insect cells (microsomal membranes)
T1 sequence (O75907 1-488): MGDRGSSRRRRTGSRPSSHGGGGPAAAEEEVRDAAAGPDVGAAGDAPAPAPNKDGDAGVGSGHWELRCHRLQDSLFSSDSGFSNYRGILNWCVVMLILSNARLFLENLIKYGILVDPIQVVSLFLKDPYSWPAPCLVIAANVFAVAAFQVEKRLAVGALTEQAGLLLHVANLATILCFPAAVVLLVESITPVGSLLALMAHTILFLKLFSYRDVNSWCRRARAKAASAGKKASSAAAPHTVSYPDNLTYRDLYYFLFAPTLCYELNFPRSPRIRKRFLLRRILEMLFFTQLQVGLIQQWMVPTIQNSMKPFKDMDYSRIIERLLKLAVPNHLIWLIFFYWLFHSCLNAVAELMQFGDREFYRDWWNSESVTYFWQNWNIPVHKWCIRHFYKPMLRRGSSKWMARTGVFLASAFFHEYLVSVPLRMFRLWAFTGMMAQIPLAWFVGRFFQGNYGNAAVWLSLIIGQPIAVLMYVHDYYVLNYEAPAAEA
Briefly: in vitro DGAT1 inhibition assay (microsomes, [14C]-palmitoyl-CoA, SPA beads).
Settings: not given
Format: biochemical. The protocol: The in vitro assay to identify DGAT1 inhibitors uses human DGAT1 enzyme expressed in Sf9 insect cells prepared as microsomes. The reaction was initiated by the addition of the combined substrates 1,2-dioleoyl-sn-glycerol and [^14C]-palmitoyl-Co A and incubated with test compounds and microsomal membranes for 2 hours at room temperature. The assay was stopped by adding 0.5 mg wheat germ agglutinin beads in assay buffer with 1% Brij-35 and 1% 3-cholamidopropyldimethyl-ammonio-1-propane sulfonate. Plates were sealed with TopSeal and incubated for 18 hours to allow the radioactive triglyceride product to come into proximity with the bead. Plates were read on a TopCount instrument.
Percent inhibition was calculated as the percent of (test compound inhibition minus non-specific binding) relative to (total binding minus non-specific binding). IC50 values were determined by curve fitting the data to a Sigmoidal dose-response in GraphPad Prism utilizing the following equation:
Y=A+(B−A)/(1+10̂((Log IC50−X))),
where A and B are the bottom and top of the curve (highest and lowest inhibition), respectively, and X is the logarithm of concentration.
With `Cc1c(C(=O)Nc2ccc(N3CCN(C(=O)Nc4ccccc4F)CC3)nc2)oc2c(C)cccc12` [Example 8, 4-(5-(3,7-dimethylbenzofuran-2-carboxamido)pyridin-2-yl)-N-(2-fluorophenyl)piperazine-1-carboxamide], it took 48 nM to reach half-maximal inhibition (IC50).

The experiment is the same for the next values; noted with them: human DGAT1 expressed in Sf9 insect cells, microsomes; 2 hours at room temperature; read-out: IC50.
On to `Cc1c(C(=O)Nc2ccc(N3CCC(OCc4cccc(C(=O)O)c4)CC3)nc2)oc2ccc(-c3ccc(F)cc3)cc12` [Example 37, 3-((1-(5-(5-(4-fluorophenyl)-3-methylbenzofuran-2-carboxamido)pyridin-2-yl)piperidin-4-yloxy)methyl)benzoic acid], for which the IC50 came out at 106 nM. The same measure, in the same setting: to `CCOC(=O)c1ccccc1NC(=O)N1CCN(c2ccc(NC(=O)c3oc4ccc(-c5cccc(F)c5)cc4c3C)cn2)CC1` [Example 30, ethyl 2-(4-(5-(5-(3-fluorophenyl)-3-methylbenzofuran-2-carboxamido)pyridin-2-yl)piperazine-1-carboxamido)benzoate] belongs 1420 nM; to `Cc1c(C(=O)Nc2ccc(N3CCN(C(=O)Nc4ccccc4F)CC3)nc2)oc2ccc(-c3cccc(F)c3)cc12` [Example 27, N-(2-fluorophenyl)-4-(5-(5-(3-fluorophenyl)-3-methylbenzofuran-2-carboxamido)pyridin-2-yl)piperazine-1-carboxamide], 316 nM. Still for that read-out and setting: to `Cc1c(C(=O)Nc2ccc(N3CCN(C(=O)Nc4ccccc4F)CC3)nc2)oc2cc(-c3ccccc3)ccc12` [Example 13, N-(2-fluorophenyl)-4-(5-(3-methyl-6-phenylbenzofuran-2-carboxamido)pyridin-2-yl)piperazine-1-carboxamide] belongs 282 nM.

With `COc1ccccc1-c1ccc2oc(C(=O)Nc3ccc(N4CCN(C(=O)Nc5ccccc5C(=O)O)CC4)nc3)c(C)c2c1` [Example 70], the IC50 was 1090 nM.

Regarding “ethyl 2-(4-(5-(5-(4-methoxyphenyl)-3-methylbenzofuran-2-carboxamido)pyridin-2-yl)piperazine-1-carboxamido)benzoate [Example 66]”, the IC50 is 454 nM. Still for that read-out and setting: the result for `CCOC(=O)c1ccccc1NC(=O)N1CCN(c2ccc(NC(=O)c3oc4ccc(-c5ccccc5)cc4c3C)cn2)CC1` [Example 14, ethyl 2-(4-(5-(3-methyl-5-phenylbenzofuran-2-carboxamido)pyridin-2-yl)piperazine-1-carboxamido)benzoate] reads 361 nM; that for `COc1ccccc1-c1ccc2oc(C(=O)Nc3ccc(N4CCC(COc5cccc(C(=O)O)c5)CC4)nc3)c(C)c2c1` [Example 71], 171 nM; that for `Cc1c(C(=O)Nc2ccc(N3CCC(COc4cccc(C(=O)O)c4)CC3)nc2)oc2ccc(Cc3ccccc3)cc12` [Example 93, 3-((1-(5-(5-benzyl-3-methylbenzofuran-2-carboxamido)pyridin-2-yl)piperidin-4-yl)methoxy)benzoic acid], 56 nM.

`Cc1c(C(=O)Nc2ccc(N3CCC(OCc4cccc(C(=O)O)c4)CC3)nc2)oc2ccc(-c3ncco3)cc12` [Example 86, 3-((1-(5-(3-methyl-5-(oxazol-2-yl)benzofuran-2-carboxamido)pyridin-2-yl)piperidin-4-yloxy)methyl)benzoic acid]: the IC50 was found to be 305 nM. Take `Cc1c(C(=O)Nc2ccc(N3CCN(C(=O)Nc4ccccc4F)CC3)nc2)oc2ccc(-c3ccccc3F)cc12` [Example 20, N-(2-fluorophenyl)-4-(5-(5-(2-fluorophenyl)-3-methylbenzofuran-2-carboxamido)pyridin-2-yl)piperazine-1-carboxamide]: the concentration for half-maximal inhibition (IC50) was determined as 115 nM.

Consider `Cc1c(C(=O)Nc2ccc(N3CCN(C(=O)Nc4ccccc4C(=O)O)CC3)nc2)sc2ccc(-c3ccccc3)cc12` [Example 53, 2-(4-(5-(3-methyl-5-phenylbenzo[b]thiophene-2-carboxamido)pyridin-2-yl)piperazine-1-carboxamido)benzoic acid], for which the half-inhibitory concentration (IC50) was found to be 27 nM. Still for that read-out and setting: to `Cc1ccc2c(C)c(C(=O)Nc3ccc(N4CCC(OCc5cccc(C(=O)O)c5)CC4)nc3)oc2c1C` [Example 87, 3-((1-(5-(3,6,7-trimethylbenzofuran-2-carboxamido)pyridin-2-yl)piperidin-4-yloxy)methyl)benzoic acid] belongs 22 nM. In the case of `Cc1c(C(=O)Nc2ccc(N3CCC(COc4cccc(C(=O)O)c4)CC3)nc2)oc2ccc(-c3cccc(F)c3)cc12` [Example 33, 3-((1-(5-(5-(3-fluorophenyl)-3-methylbenzofuran-2-carboxamido)pyridin-2-yl)piperidin-4-yl)methoxy)benzoic acid], the IC50 worked out at 93 nM.

As for `CCOC(=O)c1ccccc1NC(=O)N1CCN(c2ccc(NC(=O)c3oc4ccc(-c5ccc(F)cc5)cc4c3C)cn2)CC1` [Example 38, ethyl 2-(4-(5-(5-(4-fluorophenyl)-3-methylbenzofuran-2-carboxamido)pyridin-2-yl)piperazine-1-carboxamido)benzoate], the IC50 came out at 1010 nM. Same read-out and setting: the result for `CCOC(=O)c1ccccc1NC(=O)N1CCN(c2ccc(NC(=O)c3oc4ccc(-c5ccccc5F)cc4c3C)cn2)CC1` [Example 21, ethyl 2-(4-(5-(5-(2-fluorophenyl)-3-methylbenzofuran-2-carboxamido)pyridin-2-yl)piperazine-1-carboxamido)benzoate] reads 566 nM. On to `Cc1c(C(=O)Nc2ccc(-c3ccc(OCC(C)(C)C(=O)O)nc3)cc2)oc2ccc(-c3ccccc3)cc12` [Example 58, 2,2-dim ethyl-3-(5-(4-(3-methyl-5-phenylbenzofuran-2-carboxamido)phenyl)pyridin-2-yloxy)propanoic acid], for which the IC50 was found to be 13 nM.

For `Cc1c(C(=O)Nc2ccc(N3CCN(C(=O)Nc4ccccc4F)CC3)nc2)sc2ccc(-c3cccc(F)c3)cc12` [Example 54, N-(2-fluorophenyl)-4-(5-(5-(3-fluorophenyl)-3-methylbenzo[b]thiophene-2-carboxamido)pyridin-2-yl)piperazine-1-carboxamide], the IC50 is 220 nM. On the same count and under the same terms, the result for `Cc1c(C(=O)Nc2ccc(N3CC[C@H](COc4ccc(C(=O)O)cc4)C3)nc2)oc2ccc(-c3ccccc3)cc12` [Example 81, (S)-4-((1-(5-(3-methyl-5-phenylbenzofuran-2-carboxamido)pyridin-2-yl)pyrrolidin-3-yl)methoxy)benzoic acid] reads 1060 nM. Same read-out and setting: to `Cc1c(C(=O)Nc2ccc(N3CCC(OCc4cccc(C(=O)O)c4)CC3)nc2)oc2ccc(-c3cccc(F)c3)cc12` [Example 29, 3-((1-(5-(5-(3-fluorophenyl)-3-methylbenzofuran-2-carboxamido)pyridin-2-yl)piperidin-4-yloxy)methyl)benzoic acid] belongs 134 nM; to `CCOC(=O)c1ccccc1NC(=O)N1CCN(c2ccc(NC(=O)c3oc4ccc(-c5ccccc5OC)cc4c3C)cn2)CC1` [Example 68, ethyl 2-(4-(5-(5-(2-methoxyphenyl)-3-methylbenzofuran-2-carboxamido)pyridin-2-yl)piperazine-1-carboxamido)benzoate], 2460 nM.

Consider `Cc1c(C(=O)Nc2ccc(N3CCC(COc4cccc(C(=O)O)c4)CC3)nc2)oc2ccc(-c3ccccc3F)cc12` [Example 26, 3-((1-(5-(5-(2-fluorophenyl)-3-methylbenzofuran-2-carboxamido)pyridin-2-yl)piperidin-4-yl)methoxy)benzoic acid], for which the IC50 amounted to 59 nM. For `Cc1c(C(=O)Nc2ccc(N3CCN(C(=O)Nc4ccccc4F)CC3)nc2)oc2ccc(-c3ccc(F)cc3)cc12` [Example 40, N-(2-fluorophenyl)-4-(5-(5-(4-fluorophenyl)-3-methylbenzofuran-2-carboxamido)pyridin-2-yl)piperazine-1-carboxamide], the IC50 amounted to 100 nM. Same read-out and setting: to `Cc1c(C(=O)Nc2ccc(N3CCN(C(=O)Nc4ccccc4F)CC3)nc2)oc2c(F)cccc12` [Example 9, 4-(5-(7-fluoro-3-methylbenzofuran-2-carboxamido)pyridin-2-yl)-N-(2-fluorophenyl)piperazine-1-carboxamide] belongs 49 nM; to `Cc1c(C(=O)Nc2ccc(N3CCN(C(=O)Nc4ccccc4F)CC3)nc2)oc2ccc(-c3ncco3)cc12` [Example 82, N-(2-fluorophenyl)-4-(5-(3-methyl-5-(oxazol-2-yl)benzofuran-2-carboxamido)pyridin-2-yl)piperazine-1-carboxamide], 104 nM. Same read-out and setting: to `Cc1c(C(=O)Nc2ccc(N3CCC(COc4cccc(C(=O)O)c4)CC3)nc2)oc2ccc(-c3ccc(F)cc3)cc12` [Example 39, 3-((1-(5-(5-(4-fluorophenyl)-3-methylbenzofuran-2-carboxamido)pyridin-2-yl)piperidin-4-yl)methoxy)benzoic acid] belongs 55 nM.

As usually defined, the IC50 is the concentration that inhibits the measured activity by half.
